Experimental data published in patent US6479435B1, “Diaryl ethers and processes for their preparation and herbicidal and desiccant compositions containing them” (ISK Americas Incorporated, priority 1997, dated 2002).

Tests used:
Assay type in all cases: in vivo
[1] = system: Johnsongrass (Sorghum halepense, SORHA); test: Pre-emerge greenhouse herbicide test, phytotoxicity rating; settings: Sorghum halepense, pre-emergence, 336 h, 14 days after application, rating scale 0-100; for pest or weed control at 125 g/ha: Rate 125 g al/ha; for pest or weed control at 500 g/ha: Rate 500 g al/ha
Method in brief: (§1)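 Seeds sown in sandy loam one day before track-sprayer application of acetone solutions at 125–1000 g ai/ha (187 l/ha), then surface-watered to incorporate and bottom-watered. Injury scored visually at 14 days on a 0–100 scale (0 no damage, 100 complete death).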

[2] = system: barnyardgrass (Echinochloa crusgalli, ECHCG); test: as above; settings: Echinochloa crus-galli, pre-emergence, 336 h, 14 days after application, rating scale 0-100; for pest or weed control at 125 g/ha: Rate 125 g al/ha; for pest or weed control at 500 g/ha: Rate 500 g al/ha
Method in brief: as §1

[3] = system: green foxtail (Setaria viridis, SETVI); test: as above; settings: Setaria viridis, pre-emergence, 336 h, 14 days after application, rating scale 0-100; for pest or weed control at 125 g/ha: Rate 125 g al/ha; for pest or weed control at 500 g/ha: Rate 500 g al/ha
Method in brief: as §1

[4] = system: ivyleaf morningglory (Ipomoea hederacea, IPOHE); test: as above; settings: Ipomoea, pre-emergence, 336 h, 14 days after application, rating scale 0-100; for pest or weed control at 125 g/ha: Rate 125 g al/ha; for pest or weed control at 500 g/ha: Rate 500 g al/ha
Method in brief: as §1

[5] = system: lambsquarters (Chenopodium album, CHEAL); test: as above; settings: Chenopodium album, pre-emergence, 336 h, 14 days after application, rating scale 0-100; for pest or weed control at 125 g/ha: Rate 125 g al/ha; for pest or weed control at 500 g/ha: Rate 500 g al/ha
Method in brief: as §1

[6] = system: large crabgrass (Digitaria sanguinalis, DIGSA); test: as above; settings: Digitaria sanguinalis, pre-emergence, 336 h, 14 days after application, rating scale 0-100; for pest or weed control at 125 g/ha: Rate 125 g al/ha; for pest or weed control at 500 g/ha: Rate 500 g al/ha
Method in brief: as §1

[7] = system: redroot pigweed (Amaranthus retroflexus, AMARE); test: as above; settings: Amaranthus retroflexus, pre-emergence, 336 h, 14 days after application, rating scale 0-100; for pest or weed control at 125 g/ha: Rate 125 g al/ha; for pest or weed control at 500 g/ha: Rate 500 g al/ha
Method in brief: as §1

[8] = system: sicklepod (Cassia obtusifolia, CASOB); test: as above; settings: Senna obtusifolia, pre-emergence, 336 h, 14 days after application, rating scale 0-100; for pest or weed control at 125 g/ha: Rate 125 g al/ha; for pest or weed control at 500 g/ha: Rate 500 g al/ha
Method in brief: as §1

[9] = system: velvetleaf (Abutilon theophrasti, ABUTH); test: as above; settings: Abutilon theophrasti, pre-emergence, 336 h, 14 days after application, rating scale 0-100; for pest or weed control at 125 g/ha: Rate 125 g al/ha; for pest or weed control at 500 g/ha: Rate 500 g al/ha
Method in brief: as §1

[10] = system: green foxtail (Setaria viridis, SETVI); test: Post-emerge greenhouse herbicide test, phytotoxicity rating; settings: Setaria viridis, post-emergence, 336 h, 14 days after application, scale 0-100; for pest or weed control at 63 g/ha: rate 63 g ai/ha; for pest or weed control at 500 g/ha: rate 500 g ai/ha
Method in brief: (§2)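 Plants at the 2-3 leaf stage, sown 8-21 days earlier, were track-sprayed post-emergence with compound in acetone plus 0.25% v/v non-ionic surfactant at 63-1000 g ai/ha (187 l/ha). Damage was rated at 14 days on a 0-100 scale (0 none, 100 all plants dead), for both crop injury and weed control.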

[11] = system: ivyleaf morningglory (Ipomoea hederacea, IPOHE); test: as above; settings: Ipomoea, post-emergence, 336 h, 14 days after application, scale 0-100; for pest or weed control at 63 g/ha: rate 63 g ai/ha; for pest or weed control at 500 g/ha: rate 500 g ai/ha
Method in brief: as §2

[12] = system: lambsquarters (Chenopodium album, CHEAL); test: as above; settings: Chenopodium album, post-emergence, 336 h, 14 days after application, scale 0-100; for pest or weed control at 63 g/ha: rate 63 g ai/ha; for pest or weed control at 500 g/ha: rate 500 g ai/ha
Method in brief: as §2

[13] = system: large crabgrass (Digitaria sanguinalis, DIGSA); test: as above; settings: Digitaria sanguinalis, post-emergence, 336 h, 14 days after application, scale 0-100; for pest or weed control at 63 g/ha: rate 63 g ai/ha; for pest or weed control at 500 g/ha: rate 500 g ai/ha
Method in brief: as §2

[14] = system: redroot pigweed (Amaranthus retroflexus, AMARE); test: as above; settings: Amaranthus retroflexus, post-emergence, 336 h, 14 days after application, scale 0-100; for pest or weed control at 63 g/ha: rate 63 g ai/ha; for pest or weed control at 500 g/ha: rate 500 g ai/ha
Method in brief: as §2

[15] = system: sicklepod (Cassia obtusifolia, CASOB); test: as above; settings: Senna obtusifolia, post-emergence, 336 h, 14 days after application, scale 0-100; for pest or weed control at 63 g/ha: rate 63 g ai/ha; for pest or weed control at 500 g/ha: rate 500 g ai/ha
Method in brief: as §2

Compound | pest or weed control at 125 g/ha [1] [%] | pest or weed control at 500 g/ha [1] [%] | pest or weed control at 125 g/ha [2] [%] | pest or weed control at 500 g/ha [2] [%] | pest or weed control at 125 g/ha [3] [%] | pest or weed control at 500 g/ha [3] [%] | pest or weed control at 125 g/ha [4] [%] | pest or weed control at 500 g/ha [4] [%] | pest or weed control at 125 g/ha [5] [%] | pest or weed control at 500 g/ha [5] [%] | pest or weed control at 125 g/ha [6] [%] | pest or weed control at 500 g/ha [6] [%] | pest or weed control at 125 g/ha [7] [%] | pest or weed control at 500 g/ha [7] [%] | pest or weed control at 125 g/ha [8] [%] | pest or weed control at 500 g/ha [8] [%] | pest or weed control at 125 g/ha [9] [%] | pest or weed control at 500 g/ha [9] [%] | pest or weed control at 63 g/ha [10] [%] | pest or weed control at 500 g/ha [10] [%] | also measured
Nn1c(C(F)(F)F)cc(=O)n(-c2cc(Oc3cccc(Cl)n3)c(Cl)cc2F)c1=O [Compound 9-5, 1-Amino-3-[4-chloro-2-fluoro-5-(6-chloro-2-pyridyloxy)phenyl]-6-trifluoromethyl-1,2,3,4-tetrahydropyrimidine-2,4-dione] | 95 | 100 | 90 | 100 | 100 | 100 | 70 | 50 | 100 | 100 | 95 | 100 | 100 | 100 | 10 | 50 | 100 | 100 | 30 | 90 | pest or weed control at 63 g/ha [11]: 100%; pest or weed control at 500 g/ha [11]: 90%; pest or weed control at 63 g/ha [12]: 90%; pest or weed control at 500 g/ha [12]: 100%; pest or weed control at 63 g/ha [13]: 0%; pest or weed control at 500 g/ha [13]: 80%; pest or weed control at 63 g/ha [14]: 100%; pest or weed control at 500 g/ha [14]: 100%; pest or weed control at 63 g/ha [15]: 100%; pest or weed control at 500 g/ha [15]: 100%
Nn1c(C(F)(F)F)cc(=O)n(-c2cc(Oc3cc(C(F)(F)F)ccn3)c(Cl)cc2F)c1=O [Compound 9-8, 1-Amino-3-[4-chloro-2-fluoro-5-(4-trifluoromethyl-2-pyridyloxy)phenyl]-6-trifluoromethyl-1,2,3,4-tetrahydropyrimidine-2,4-dione] | 50 | 99 | 30 | 99 | 40 | 100 | 95 | 100 | 100 | 100 | 20 | 100 | 100 | 100 | 80 | 90 | 100 | 100 | 30 | 75 | pest or weed control at 63 g/ha [11]: 95%; pest or weed control at 500 g/ha [11]: 100%; pest or weed control at 63 g/ha [12]: 95%; pest or weed control at 500 g/ha [12]: 100%; pest or weed control at 63 g/ha [13]: 10%; pest or weed control at 500 g/ha [13]: 30%; pest or weed control at 63 g/ha [14]: 100%; pest or weed control at 500 g/ha [14]: 100%; pest or weed control at 63 g/ha [15]: 30%; pest or weed control at 500 g/ha [15]: 30%
Nn1c(C(F)(F)F)cc(=O)n(-c2cc(Oc3ncccn3)c(Cl)cc2F)c1=O [Compound 9-16, 1-Amino-3-[4-chloro-2-fluoro-5-(2-pyrimidyloxy)phenyl]-6-trifluoromethyl-1,2,3,4-tetrahydropyrimidine-2,4-dione] | 100 | 100 | 100 | 100 | 100 | 100 | 100 | 100 | 100 | 100 | 100 | 100 | 100 | 100 | 100 | 100 | 100 | 100 | 100 | 100 | pest or weed control at 63 g/ha [11]: 100%; pest or weed control at 500 g/ha [11]: 100%; pest or weed control at 63 g/ha [12]: 100%; pest or weed control at 500 g/ha [12]: 100%; pest or weed control at 63 g/ha [13]: 100%; pest or weed control at 500 g/ha [13]: 100%; pest or weed control at 63 g/ha [14]: 100%; pest or weed control at 500 g/ha [14]: 100%; pest or weed control at 63 g/ha [15]: 100%; pest or weed control at 500 g/ha [15]: 100%
